This test deals with T1, LUSH (Drosophila melanogaster, UniProt O02372).
T1 sequence (O02372 30-153): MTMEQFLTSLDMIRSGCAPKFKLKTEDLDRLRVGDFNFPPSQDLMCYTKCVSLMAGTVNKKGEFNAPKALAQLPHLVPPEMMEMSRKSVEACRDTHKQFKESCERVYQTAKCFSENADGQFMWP
It counts as binding.

pKd: −log10 of the molar value.

A word on the pKd: it is −log10 of the Kd, conventionally taken in molar units.

With `CCCCCC/C=C\CCCCCCCCCCOC(C)=O` [cVA, 11-cis vaccenyl acetate], the pKd was 6.97.
For `CCC/C=C\C=C\CCCCCCCCCO` [bombykol] the value was 6.67.

(Values after publication PMC3552018 (Insect molecular biology, 2012).)
